Reference: PubChem BioAssay AID1963851 (Molecular Pharmacology Branch, DTP, NCI, 2024)

System: 188146-221-R-J1-PDC complex spheroid viability
Experiment: Anticancer human tumor 188146-221-R-J1-PDC patient-derived colon adenocarcinoma cell line growth inhibition [POLQ]
Conditions: for IC50: curve of first compound; for viability, T/C: stronger effect = lower value
Outline: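 Complex spheroid viability model combining PDC tumour cells with endothelial (HUVEC) and MSC stromal cells. Novobiocin, ART-558 or RP6685 were tested singly and in combination with standard and investigational anticancer drugs. Each was titrated in half-log steps from near clinical Cmax, or from 10 microM where Cmax was unknown.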

[1] = second compound 0.0316 µM, first compound 0.0316 µM
[2] = second compound 0.0316 µM, first compound 0.1 µM
[3] = second compound 0.0316 µM, first compound 0.316 µM
[4] = second compound 0.0316 µM, first compound 1 µM
[5] = second compound 0.0316 µM, first compound 3.16 µM
[6] = second compound 0.0316 µM, first compound 10 µM
[7] = second compound 0.1 µM, first compound 0.0316 µM
[8] = second compound 0.1 µM, first compound 0.1 µM
[9] = second compound 0.1 µM, first compound 0.316 µM
[10] = second compound 0.1 µM, first compound 1 µM
[11] = second compound 0.1 µM, first compound 3.16 µM
[12] = second compound 0.1 µM, first compound 10 µM
[13] = second compound 0.316 µM, first compound 0.0316 µM
[14] = second compound 0.316 µM, first compound 0.1 µM
[15] = second compound 0.316 µM, first compound 0.316 µM
[16] = second compound 0.316 µM, first compound 1 µM
[17] = second compound 0.316 µM, first compound 3.16 µM
[18] = second compound 0.316 µM, first compound 10 µM
[19] = second compound 1 µM, first compound 0.0316 µM
[20] = second compound 1 µM, first compound 0.1 µM
[21] = second compound 1 µM, first compound 0.316 µM
[22] = second compound 1 µM, first compound 1 µM
[23] = second compound 1 µM, first compound 3.16 µM
[24] = second compound 1 µM, first compound 10 µM
[25] = second compound 3.16 µM, first compound 0.0316 µM
[26] = second compound 3.16 µM, first compound 0.1 µM
[27] = second compound 3.16 µM, first compound 0.316 µM
[28] = second compound 3.16 µM, first compound 1 µM
[29] = second compound 3.16 µM, first compound 3.16 µM
[30] = second compound 3.16 µM, first compound 10 µM
[31] = second compound 10 µM, first compound 0.0316 µM
[32] = second compound 10 µM, first compound 0.1 µM
[33] = second compound 10 µM, first compound 0.316 µM
[34] = second compound 10 µM, first compound 1 µM
[35] = second compound 10 µM, first compound 3.16 µM
[36] = second compound 10 µM, first compound 10 µM
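Further: spheroids exposed to compounds for seven days.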
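Wherever viability, T/C is given: 100% = DMSO vehicle control viability.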

O=C(Nc1ccc(O)c(NS(=O)(=O)c2ccc(F)cc2)c1)c1ccc(-c2ccccc2)cc1 + COC1C(OC(N)=O)C(O)C(Oc2ccc3c(O)c(NC(=O)c4ccc(O)c(CC=C(C)C)c4)c(=O)oc3c2C)OC1(C)C
IC50 (second compound 0.0316 µM): > 10000 nM
IC50 (second compound 0.1 µM): > 10000 nM
IC50 (second compound 0.316 µM): > 10000 nM
IC50 (second compound 1 µM): > 10000 nM
IC50 (second compound 3.16 µM): > 10000 nM
IC50 (second compound 10 µM): > 10000 nM
viability, T/C [1]: 104%
viability, T/C [2]: 95%
viability, T/C [3]: 99.7%
viability, T/C [4]: 97.6%
viability, T/C [5]: 86.5%
viability, T/C [6]: 89%
viability, T/C [7]: 106%
viability, T/C [8]: 104%
viability, T/C [9]: 96.5%
viability, T/C [10]: 99.4%
viability, T/C [11]: 98.8%
viability, T/C [12]: 75.2%
viability, T/C [13]: 95%
viability, T/C [14]: 108%
viability, T/C [15]: 101%
viability, T/C [16]: 100%
viability, T/C [17]: 88.2%
viability, T/C [18]: 69.4%
viability, T/C [19]: 102%
viability, T/C [20]: 96.2%
viability, T/C [21]: 105%
viability, T/C [22]: 101%
viability, T/C [23]: 94.4%
viability, T/C [24]: 79.5%
viability, T/C [25]: 105%
viability, T/C [26]: 106%
viability, T/C [27]: 108%
viability, T/C [28]: 88.7%
viability, T/C [29]: 97.4%
viability, T/C [30]: 73.1%
viability, T/C [31]: 96.9%
viability, T/C [32]: 95.8%
viability, T/C [33]: 113%
viability, T/C [34]: 102%
viability, T/C [35]: 103%
viability, T/C [36]: 83.3%

CC[C@@]1(O)C(=O)OCc2c1cc1n(c2=O)Cc2cc3c(CN(C)C)c(O)ccc3nc2-1 + Cc1cccc(N(C)C(=O)C2C(O)CCN2c2nc(C)cc(C(F)(F)F)c2C#N)c1
IC50 (second compound 0.0316 µM): > 100 nM
IC50 (second compound 0.1 µM): > 100 nM
IC50 (second compound 0.316 µM): > 100 nM
IC50 (second compound 1 µM): > 100 nM
IC50 (second compound 3.16 µM): > 100 nM
IC50 (second compound 10 µM): > 100 nM
viability, T/C (second compound 0.0316 µM, first compound 0.000316 µM): 110%
viability, T/C (second compound 0.0316 µM, first compound 0.001 µM): 95.1%
viability, T/C (second compound 0.0316 µM, first compound 0.00316 µM): 106%
viability, T/C (second compound 0.0316 µM, first compound 0.01 µM): 89.6%
viability, T/C [1]: 98.1%
viability, T/C [2]: 68.7%
viability, T/C (second compound 0.1 µM, first compound 0.000316 µM): 112%
viability, T/C (second compound 0.1 µM, first compound 0.001 µM): 99.6%
viability, T/C (second compound 0.1 µM, first compound 0.00316 µM): 96%
viability, T/C (second compound 0.1 µM, first compound 0.01 µM): 107%
viability, T/C [7]: 99.1%
viability, T/C [8]: 77.5%
viability, T/C (second compound 0.316 µM, first compound 0.000316 µM): 109%
viability, T/C (second compound 0.316 µM, first compound 0.001 µM): 91.2%
viability, T/C (second compound 0.316 µM, first compound 0.00316 µM): 92.4%
viability, T/C (second compound 0.316 µM, first compound 0.01 µM): 87%
viability, T/C [13]: 96.5%
viability, T/C [14]: 71.3%
viability, T/C (second compound 1 µM, first compound 0.000316 µM): 93.4%
viability, T/C (second compound 1 µM, first compound 0.001 µM): 99%
viability, T/C (second compound 1 µM, first compound 0.00316 µM): 101%
viability, T/C (second compound 1 µM, first compound 0.01 µM): 104%
viability, T/C [19]: 97.9%
viability, T/C [20]: 75.9%
viability, T/C (second compound 3.16 µM, first compound 0.000316 µM): 97.2%
viability, T/C (second compound 3.16 µM, first compound 0.001 µM): 100%
viability, T/C (second compound 3.16 µM, first compound 0.00316 µM): 94.6%
viability, T/C (second compound 3.16 µM, first compound 0.01 µM): 91.8%
viability, T/C [25]: 92.2%
viability, T/C [26]: 81%
viability, T/C (second compound 10 µM, first compound 0.000316 µM): 100%
viability, T/C (second compound 10 µM, first compound 0.001 µM): 99.6%
viability, T/C (second compound 10 µM, first compound 0.00316 µM): 92.4%
viability, T/C (second compound 10 µM, first compound 0.01 µM): 84.2%
viability, T/C [31]: 78%
viability, T/C [32]: 54.6%

COc1cccc2c1C(=O)c1c(O)c3c(c(O)c1C2=O)CC(O)(C(=O)CO)CC3OC1CC(N)C(O)C(C)O1 (stereo not drawn) + Cc1cccc(N(C)C(=O)C2C(O)CCN2c2nc(C)cc(C(F)(F)F)c2C#N)c1
IC50 (second compound 0.0316 µM): 102 nM
IC50 (second compound 0.1 µM): 146 nM
IC50 (second compound 0.316 µM): 117 nM
IC50 (second compound 1 µM): 117 nM
IC50 (second compound 3.16 µM): 97.9 nM
IC50 (second compound 10 µM): 75.4 nM
viability, T/C [1]: 83.8%
viability, T/C [2]: 48%
viability, T/C [3]: 31.3%
viability, T/C [4]: 9.29%
viability, T/C [5]: 0.34%
viability, T/C [6]: 0.84%
viability, T/C [7]: 75.1%
viability, T/C [8]: 56.8%
viability, T/C [9]: 34.5%
viability, T/C [10]: 8.42%
viability, T/C [11]: 0.28%
viability, T/C [12]: 0.45%
viability, T/C [13]: 81%
viability, T/C [14]: 48.9%
viability, T/C [15]: 36.7%
viability, T/C [16]: 10%
viability, T/C [17]: 0.19%
viability, T/C [18]: 0.47%
viability, T/C [19]: 74%
viability, T/C [20]: 51%
viability, T/C [21]: 32.6%
viability, T/C [22]: 10.9%
viability, T/C [23]: 0.17%
viability, T/C [24]: 0.44%
viability, T/C [25]: 69.8%
viability, T/C [26]: 47.2%
viability, T/C [27]: 29.8%
viability, T/C [28]: 6.51%
viability, T/C [29]: 0.32%
viability, T/C [30]: 0.65%
viability, T/C [31]: 74.8%
viability, T/C [32]: 39.5%
viability, T/C [33]: 26.4%
viability, T/C [34]: 3.83%
viability, T/C [35]: 0.3%
viability, T/C [36]: 0.64%

Nc1ccn(C2OC(CO)C(O)C2(F)F)c(=O)n1 (stereo not drawn) + Cc1cccc(N(C)C(=O)C2C(O)CCN2c2nc(C)cc(C(F)(F)F)c2C#N)c1
IC50 (second compound 0.0316 µM): < 31.6 nM
IC50 (second compound 0.1 µM): < 31.6 nM
IC50 (second compound 0.316 µM): < 31.6 nM
IC50 (second compound 1 µM): < 31.6 nM
IC50 (second compound 3.16 µM): < 31.6 nM
IC50 (second compound 10 µM): < 31.6 nM
viability, T/C [1]: 35.5%
viability, T/C [2]: 20.8%
viability, T/C [3]: 14.7%
viability, T/C [4]: 18.1%
viability, T/C [5]: 17.1%
viability, T/C [6]: 10.2%
viability, T/C [7]: 41%
viability, T/C [8]: 23.8%
viability, T/C [9]: 15.2%
viability, T/C [10]: 15.9%
viability, T/C [11]: 14.9%
viability, T/C [12]: 11.3%
viability, T/C [13]: 31.9%
viability, T/C [14]: 20.5%
viability, T/C [15]: 14.2%
viability, T/C [16]: 15%
viability, T/C [17]: 16.9%
viability, T/C [18]: 14.1%
viability, T/C [19]: 28.1%
viability, T/C [20]: 25.9%
viability, T/C [21]: 20.2%
viability, T/C [22]: 16.2%
viability, T/C [23]: 14.3%
viability, T/C [24]: 10.8%
viability, T/C [25]: 24.6%
viability, T/C [26]: 22.5%
viability, T/C [27]: 15.8%
viability, T/C [28]: 16.5%
viability, T/C [29]: 17.8%
viability, T/C [30]: 11.1%
viability, T/C [31]: 31.1%
viability, T/C [32]: 19.1%
viability, T/C [33]: 20.3%
viability, T/C [34]: 22%
viability, T/C [35]: 20.5%
viability, T/C [36]: 11.4%
